Patent publication US12404261B2, “Compounds and compositions for treating conditions associated with cGAS” (Novartis AG, priority 2020, dated 2025)

Target: human truncated cGAS enzyme (147-522 human cGAS) (Homo sapiens (Human), UniProt Q8N884)
Assay: Quantification of cGAS protein inhibition (cGAMP formation measured by LC-MS/MS)
Assay type: biochemical
Conditions: reported for the potential mixture in solution of co-existing tautomers and/or racemates
Method in brief: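 Human cGAS 147-522 (30 nM) in Tris pH 7.5, NaCl, MgCl2, ZnCl2, Tween 20, started with 5 μM ISD 45 bp dsDNA, 0.5 mM GTP and 0.5 mM ATP. Incubated 1 h at room temperature, then quenched with acetonitrile/TFA. cGAMP quantified by LC-MS/MS against a labelled cGAMP internal standard; IC50 from ratio versus compound concentration.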

Sequence of human truncated cGAS enzyme (147-522 human cGAS) (Q8N884 147-522): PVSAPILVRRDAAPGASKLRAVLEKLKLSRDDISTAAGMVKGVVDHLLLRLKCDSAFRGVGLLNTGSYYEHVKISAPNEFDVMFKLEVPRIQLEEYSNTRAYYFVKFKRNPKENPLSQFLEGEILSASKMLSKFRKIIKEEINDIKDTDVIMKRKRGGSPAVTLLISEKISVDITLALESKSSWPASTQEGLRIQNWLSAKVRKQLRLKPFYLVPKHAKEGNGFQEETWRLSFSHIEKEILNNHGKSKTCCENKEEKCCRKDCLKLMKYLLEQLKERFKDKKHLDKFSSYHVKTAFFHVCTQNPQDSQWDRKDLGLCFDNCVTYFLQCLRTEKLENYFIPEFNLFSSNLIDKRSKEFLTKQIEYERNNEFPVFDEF

| SMILES | IC50 [nM] |
| --- | --- |
| Cn1c(-c2nnc(CCO)[nH]2)c(-n2ccnc2)c2cc(O)c(Cl)c(C#N)c21 [Example 117, 6-chloro-5-hydroxy-2-(5-(2-hydroxyethyl)-4H-1,2,4-triazol-3-yl)-3-(1H-imidazol-1-yl)-1-methyl-1H-indole-7-carbonitrile] | 169 |
| COc1cc2c(-n3ccnc3)c(-c3nnc(CCO)[nH]3)n(C)c2c(C#N)c1Cl [Example 118, 6-chloro-2-(5-(2-hydroxyethyl)-4H-1,2,4-triazol-3-yl)-3-(1H-imidazol-1-yl)-5-methoxy-1-methyl-1H-indole-7-carbonitrile] | 291 |
| COc1cc2c(-n3ccnc3)c(-c3nnc(CCO)[nH]3)n(C)c2cc1Cl [Example 119, 2-(5-(6-chloro-3-(1H-imidazol-1-yl)-5-methoxy-1-methyl-1H-indol-2-yl)-4H-1,2,4-triazol-3-yl)ethan-1-ol] | 990 |
| COc1cc2c(-n3ccnc3)c(-c3nnc(C(C)N4CCOCC4)[nH]3)n(C)c2c(F)c1Cl (stereo not drawn) [Example 121, 4-(1-(5-(6-chloro-7-fluoro-3-(1H-imidazol-1-yl)-5-methoxy-1-methyl-1H-indol-2-yl)-4H-1,2,4-triazol-3-yl)ethyl)morpholine] | 80 |
| COc1cc2c(-n3ccnc3)c(-c3nnc(C(C)N(C)C)[nH]3)n(C)c2c(F)c1Cl (stereo not drawn) [Example 122, 1-(5-(6-chloro-7-fluoro-3-(1H-imidazol-1-yl)-5-methoxy-1-methyl-1H-indol-2-yl)-4H-1,2,4-triazol-3-yl)-N,N-dimethylethan-1-amine] | 177 |
| CNC(C)c1nnc(-c2c(-n3ccnc3)c3cc(OC)c(Cl)c(F)c3n2C)[nH]1 (stereo not drawn) [Example 123, 1-(5-(6-chloro-7-fluoro-3-(1H-imidazol-1-yl)-5-methoxy-1-methyl-1H-indol-2-yl)-4H-1,2,4-triazol-3-yl)-N-methylethan-1-amine] | 121 |
| COC[C@@H](c1nnc(-c2c(-n3ccnc3)c3cc(OC)c(Cl)c(F)c3n2C)[nH]1)N(C)C [Example 124a, (R)-1-(5-(6-chloro-7-fluoro-3-(1H-imidazol-1-yl)-5-methoxy-1-methyl-1H-indol-2-yl)-4H-1,2,4-triazol-3-yl)-2-methoxy-N,N-dimethylethan-1-amine] | 120 |
| COC[C@H](c1nnc(-c2c(-n3ccnc3)c3cc(OC)c(Cl)c(F)c3n2C)[nH]1)N(C)C [Example 124b, (S)-1-(5-(6-chloro-7-fluoro-3-(1H-imidazol-1-yl)-5-methoxy-1-methyl-1H-indol-2-yl)-4H-1,2,4-triazol-3-yl)-2-methoxy-N,N-dimethylethan-1-amine] | 140 |
| CN[C@@H](COC)c1nnc(-c2c(-n3ccnc3)c3cc(OC)c(Cl)c(F)c3n2C)[nH]1 [Example 125a, (R)-1-(5-(6-chloro-7-fluoro-3-(1H-imidazol-1-yl)-5-methoxy-1-methyl-1H-indol-2-yl)-4H-1,2,4-triazol-3-yl)-2-methoxy-N-methylethan-1-amine] | 180 |
| CN[C@H](COC)c1nnc(-c2c(-n3ccnc3)c3cc(OC)c(Cl)c(F)c3n2C)[nH]1 [Example 125b, (S)-1-(5-(6-chloro-7-fluoro-3-(1H-imidazol-1-yl)-5-methoxy-1-methyl-1H-indol-2-yl)-4H-1,2,4-triazol-3-yl)-2-methoxy-N-methylethan-1-amine] | 180 |
| COCC(c1nnc(-c2c(-n3ccnc3)c3cc(OC)c(Cl)c(F)c3n2C)[nH]1)N1CCOCC1 (stereo not drawn) [Example 126, 4-(1-(5-(6-chloro-7-fluoro-3-(1H-imidazol-1-yl)-5-methoxy-1-methyl-1H-indol-2-yl)-4H-1,2,4-triazol-3-yl)-2-methoxyethyl)morpholine] | 411 |
| COCC(c1nnc(-c2c(-n3ccnc3)c3cc(OC)c(Cl)c(F)c3n2C)[nH]1)N1CCC1 (stereo not drawn) [Example 127, 2-(5-(1-(azetidin-1-yl)-2-methoxyethyl)-4H-1,2,4-triazol-3-yl)-6-chloro-7-fluoro-3-(1H-imidazol-1-yl)-5-methoxy-1-methyl-1H-indole] | 487 |
| COCCN(C)C(C)c1nnc(-c2c(-n3ccnc3)c3cc(OC)c(Cl)c(F)c3n2C)[nH]1 (stereo not drawn) [Example 128, 1-(5-(6-chloro-7-fluoro-3-(1H-imidazol-1-yl)-5-methoxy-1-methyl-1H-indol-2-yl)-4H-1,2,4-triazol-3-yl)-N-(2-methoxyethyl)-N-methylethan-1-amine] | 454 |
| COCCNC(C)c1nnc(-c2c(-n3ccnc3)c3cc(OC)c(Cl)c(F)c3n2C)[nH]1 (stereo not drawn) [Example 129, 1-(5-(6-chloro-7-fluoro-3-(1H-imidazol-1-yl)-5-methoxy-1-methyl-1H-indol-2-yl)-4H-1,2,4-triazol-3-yl)-N-(2-methoxyethyl)ethan-1-amine] | 757 |
| COc1cc2c(-n3ccnc3)c(-c3nnc(C(C)N4CC5(COC5)C4)[nH]3)n(C)c2c(F)c1Cl (stereo not drawn) [Example 130, 6-(1-(5-(6-chloro-7-fluoro-3-(1H-imidazol-1-yl)-5-methoxy-1-methyl-1H-indol-2-yl)-4H-1,2,4-triazol-3-yl)ethyl)-2-oxa-6-azaspiro[3.3]heptane] | 268 |
